# Where a SMILES comes first, the peptide text is derived from it.
# How the values were obtained:
# [1] = tested on: red blood cells (defibrinated sheep's blood); experiment: RBC hemolysis assay; type: cell-based; conditions: RBCs
# Protocol: Test substances were diluted 2-fold in water across a 96-well polypropylene mother plate, leaving one no-compound control. Two microliters from each well were stamped onto a 96-well polystyrene assay plate. A red blood cell suspension was made by mixing 0.2% defibrinated sheep’s blood (Hardy Diagnostics DSB100) in PBS. All assay plates received 100 μl/well of the red blood cell suspension. Plates were then incubated at 37°C overnight.
# 293T human cell line = experiment: Mammalian cell cytotoxicity (CellTiter Glo); type: cell-based; conditions: for Cytotox CC50: 293T cells, 10,000 cells/well, three days, 37°C, CellTiter Glo luminescence
# Protocol: On day one, cells from an established 293T human cell line were seeded onto 96-well flat-bottom white plates (10,000 293T cells/well). On day two, dilution plates were prepared by diluting compound in cell growth medium to two times the final starting concentration and then carrying out serial two-fold dilutions across the plate. Medium from the cell growth assay plates was then aspirated, and 50 μl from the compound dilution plates were transferred to the assay plates. Fifty microliters of fresh media were then added to all the wells. The plates were incubated at 37°C, 5% CO2 for three days. […]. Media from the assay plates was aspirated, and 100 μl of CellTiter Glo/growth media mix was added to all wells. After five minutes, luminescence was read, and% inhibition vs. compound concentration was plotted.
# [2] = tested on: P. aeruginosa ATCC 27853 and P. aeruginosa ATCC 39324; conditions: two ATCC strains of P. aeruginosa, CLSI
# Protocol: (§1) MICs and a killing assay were performed in this study. MICs were determined according to CLSI guidelines, using 2-fold serial compound dilutions in 96-well microtiter plates. Briefly, compounds were diluted in water across a mother plate and then 2 μl were stamped to assay plates—one plate for each strain to be tested. Bacterial strains were sub-cultured overnight on agar plates at 37°C. […] These concentrated cultures were diluted 1:200 in growth media to approximately 5 x 10^5 cells/ml. All assay plates received 100 μL diluted culture per well. All plates were placed at 37°C overnight. […] Wells at and above the MIC should appear devoid of growth when visualized.
# P. aeruginosa BAA-2110 = experiment: Killing assay; type: cell-based, Pseudomonas aeruginosa; conditions: third-generation cephalosporin-resistant strain; PBS + 1% BSA, 37°C, 90 minutes
# Protocol: (§2) Overnight plates were used to seed 30 ml cultures of growth media in 250 ml vented flasks. Cultures were grown aerobically at 37°C with shaking at 150 rpm. Growth was monitored at A600, and bacterial cells were harvested at mid-log growth. Ten milliliters of culture were pelleted at 4000 x g for 10 minutes and washed once with PBS + 1% BSA (PBSA) prior to resuspension in 2 ml of PBSA. The concentrated culture was used to seed 6 ml tubes of PBSA to an OD giving a concentration of 1 x 10^8 cells/ml. Cultures were diluted to 1 x10^4 cells/ml in PBSA. Test substances were diluted in PBSA, and 50 μL per concentration tested were loaded into a 96-well polypropylene microtiter plate. Fifty microliters of diluted culture were added to all test wells and all no-compound control wells. Plates were shaken and then incubated at 37°C for 90 minutes without shaking. Ten microliters from each assay well were plated onto agar plates and incubated at 37°C overnight. Percent killing was determined by the CFU for test wells vs. the CFU for no-compound control wells.
# P. aeruginosa = experiment: Killing assay, strains not itemised; type: cell-based, Pseudomonas aeruginosa; conditions: P. aeruginosa ATCC strains; 1 x10^4 cells/ml in PBS + 1% BSA, 37°C, 90 minutes, CFU plating; EC50 = lowest concentration causing > 50% colony reduction
# Protocol: as §2
# P. aeruginosa ATCC 27853 = type: cell-based, Pseudomonas aeruginosa; conditions: for MIC P. aeruginosa ATCC 27853: CLSI microdilution, 2-fold dilutions, ~5 x 10^5 cells/ml, 37°C, 18 hours, MIC = lowest concentration inhibiting growth by at least 80%
# Protocol: (§3) All plates were placed at 37°C overnight.
# P. aeruginosa ATCC 39324 = type: cell-based, Pseudomonas aeruginosa; conditions: for MIC P. aeruginosa ATCC 39324: CLSI microdilution, 2-fold dilutions, ~5 x 10^5 cells/ml, 37°C, 18 hours, MIC = at least 80% growth inhibition
# Protocol: as §3
# in vitro = conditions: human, normal human serum diluted in water
# Protocol: The supernatant was warmed to 37°C in a water bath. Twenty microliters of each test article were placed in a 2.0 ml round bottom microfuge tube. Two milliliters of diluted NHS were added to each tube, which was immediately vortexed, followed by transfer of 200 μl to a fresh microfuge tube placed at 37°C in a rotating rack.
# Twenty microliters of each test article at 10 mg/ml were placed in a 2.0 mL round-bottomed microfuge tube. […] The tubes were immediately vortexed, and 200 μl were transferred to a fresh microfuge tube with 40 μl of 1% trichloroacetic acid (TCA). Assay tubes were placed at 37°C in a rotating rack. […] Supernatant from each tube was collected and frozen at -20°C for analysis. Mass spectrometry was used to quantify the percentage of test substance still intact.
# E. coli ATCC 25922 = tested on: E. coli ATCC 25922
# Protocol: as §1
# S. aureus 29213 = tested on: S. aureus 29213
# Protocol: as §1
# MIC in human serum = type: cell-based; conditions: ratio to MIC, strain not given, NA = no activity in human serum
# [3] = CLSI microdilution, 2-fold dilutions, ~5 x 10^5 cells/ml, 37°C, 18 hours, MIC = at least 80% growth inhibition
# [4] = molar equivalent of the MIC, unit not given
SMILES,hemolytic activity [1],cytotoxic activity (293T human cell line; mammalian cells / 293T),MIC in an MIC assay [2] [µg/mL],"EC50 killing assay, BAA-2110 (P. aeruginosa BAA-2110) [µg/mL]",EC50 in the killing assay (P. aeruginosa) [µg/mL],cytotoxicity against 293T relative to the MIC (293T human cell line),Cytotox CC50 (293T human cell line) [µg/mL],MIC P. aeruginosa ATCC 27853 (P. aeruginosa ATCC 27853) [µg/mL],MIC P. aeruginosa ATCC 39324 (P. aeruginosa ATCC 39324) [µg/mL],half-life at 0.099 mg/ml (in vitro) [min],MIC E. coli ATCC 25922 (E. coli ATCC 25922; [3]) [µg/mL],"MIC E. coli ATCC 25922, molar equivalents (number in parentheses) (E. coli ATCC 25922; [4])",MIC S. aureus 29213 (S. aureus 29213; [3]) [µg/mL],"MIC S. aureus 29213, molar equivalents (number in parentheses) (S. aureus 29213; [4])",Human Serum hsMIC/MIC (MIC in human serum),"MIC P. aeruginosa ATCC 27853, molar equivalents (number in parentheses) (P. aeruginosa ATCC 27853; [4])","MIC P. aeruginosa ATCC 39324, molar equivalents (number in parentheses) (P. aeruginosa ATCC 39324; [4])"
CC[C@@H](C)[C@@H](NC(=O)[C@H](NC(=O)[C@@H](CCCNC(=N)N)NC(=O)[C@H]1CCCN1C(=O)[C@@H](CCCCN)NC(=O)[C@@H](CCCCN)NC(=O)[C@@H](Cc1ccccc1)NC(=O)[C@@H](Cc1ccccc1)NC(=O)[C@@H](CCC(=O)O)NC(=O)[C@@H](CCCCN)NC(=O)[C@@H](C)NC(=O)[C@@H](CCCNC(=N)N)NC(=O)[C@@H](CCCCN)NC(=O)[C@@H](CCCCN)NC(=O)[C@H](NC(=O)[C@@H](CO)NC(=O)[C@@H](CCCCN)NC(=O)[C@@H](CCCCN)NC(=O)[C@@H](CC(C)C)NC(=O)[C@@H](CCCCN)NC(=O)[C@@H](CCCNC(=N)N)NC(=O)[C@@H](Cc1ccccc1)NC(=O)[C@@H](Cc1ccccc1)NC(=O)[C@@H](CCCCN)NC(=O)CNC(=O)CNC(=O)CN)C(C)C)C(C)C)C(=O)NCC(=O)N[C@@H](C(=O)N[C@H](CO)C(=O)N[C@@H](C(=O)N1CCC[C@@H]1C(=O)N[C@H](Cc1ccccc1)C(=O)O)[C@H](C)CC)C(C)C [D297] (HELM PEPTIDE1{G.G.G.[dK].[dF].[dF].[dR].[dK].[dL].[dK].[dK].[dS].[dV].[dK].[dK].[dR].[dA].[dK].[dE].[dF].[dF].[dK].[dK].[dP].[dR].[dV].[dI].G.[dV].[dS].[dI].[dP].[dF]}$$$$V2.0),low,low,–,–,–,–,–,–,–,–,–,–,–,–,–,–,–
CC[C@H](C)[C@H](NC(=O)[C@@H](NC(=O)[C@H](CCCNC(=N)N)NC(=O)[C@@H]1CCCN1C(=O)[C@H](CCCCN)NC(=O)[C@H](CCCCN)NC(=O)[C@H](Cc1ccccc1)NC(=O)[C@H](Cc1ccccc1)NC(=O)[C@H](CCC(=O)O)NC(=O)[C@H](CCCCN)NC(=O)[C@H](C)NC(=O)[C@H](CCCNC(=N)N)NC(=O)[C@H](CCCCN)NC(=O)[C@H](CCCCN)NC(=O)[C@@H](NC(=O)[C@H](CO)NC(=O)[C@H](CCCCN)NC(=O)[C@H](CCCCN)NC(=O)[C@H](CC(C)C)NC(=O)[C@H](CCCCN)NC(=O)[C@H](CCCNC(=N)N)NC(=O)[C@H](Cc1ccccc1)NC(=O)[C@H](Cc1ccccc1)NC(=O)[C@H](CCCCN)NC(=O)CNC(=O)CNC(=O)CN)C(C)C)C(C)C)C(=O)NCC(=O)N[C@H](C(=O)N[C@@H](CO)C(=O)N[C@H](C(=O)N1CCC[C@H]1C(=O)N[C@@H](Cc1ccccc1)C(=O)O)[C@@H](C)CC)C(C)C [P297] (H-GGGKFFRKLKKSVKKRAKEFFKKPRVIGVSIPF-OH),–,–,2 to 4,0.14 to 0.28,0.14 to 0.28,approximately 200 fold,780,4,2,~20,–,–,–,–,–,–,–
"CC(C)(O/N=C(\C(=O)N[C@@H]1C(=O)N2C(C(=O)[O-])=C(C[n+]3ccccc3)CS[C@H]12)c1csc(N)n1)C(=O)O [Ceftazadime, reference compound]",–,–,–,–,–,–,550,1,1,–,0.25,0.5,4,7.3,1,1.8,1.8
